The results in this text go back to patent US8735388B2, “Heterocyclic compounds with affinity to muscarinic receptors” (Abbvie B. V. A., priority 2007, dated 2014).

SMILES strings stand for the structures. Read-outs that look alike come from different tables or passages of the source.

By Kb is commonly meant the equilibrium dissociation constant of an antagonist, usually derived from a functional assay. The low end stands for a more potent antagonist, the high end for a less potent antagonist.

The target in assay [1] is T1, Muscarine M4 (GPCR-A-MA-ACH M4) (Homo sapiens, UniProt P08173).
T1 construct: expressed in transfected cells; host or cells: CHO cells
T1 sequence (P08173 1-479): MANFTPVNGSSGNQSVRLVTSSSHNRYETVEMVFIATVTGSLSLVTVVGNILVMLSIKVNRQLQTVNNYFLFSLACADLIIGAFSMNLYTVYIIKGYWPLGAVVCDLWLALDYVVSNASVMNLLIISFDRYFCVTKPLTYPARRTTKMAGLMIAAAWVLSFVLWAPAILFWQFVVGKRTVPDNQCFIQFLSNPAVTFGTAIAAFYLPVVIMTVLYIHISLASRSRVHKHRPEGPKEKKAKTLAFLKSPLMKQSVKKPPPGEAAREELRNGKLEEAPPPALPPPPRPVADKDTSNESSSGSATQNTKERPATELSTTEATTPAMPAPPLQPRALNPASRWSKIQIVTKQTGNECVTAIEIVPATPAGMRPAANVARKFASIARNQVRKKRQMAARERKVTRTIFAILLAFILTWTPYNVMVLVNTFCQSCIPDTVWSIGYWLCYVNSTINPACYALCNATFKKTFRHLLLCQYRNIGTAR
Nature of the assay: Muscarine M4 receptor binding, 3H-Oxotremorine. On the procedure: (§1) Compounds were dissolved in DMSO (10 mM) and diluted in assay buffer to test concentration. Prime testing was at 10 μM; for actives (PI, percent inhibition with respect to total and non-specific binding >40%) testing was continued at lower concentrations in 10-fold dilutions: 1 μM, 0.1 μM, etc.
(§2) Following incubation of compound with the receptor preparation (from ‘Tissue’) and the Ligand at the time and temperature indicated, the receptor preparations were rapidly filtered under vacuum through glass fibre filters; the filters were washed extensively with an ice-cold buffer using a harvester. Bound radioactivity was measured by scintillation counting using a liquid scintillation cocktail.
(§3) Results were expressed as percentage of total Ligand binding and that of Non Specific Binding, per concentration of Compound tested (duplicates); from the concentration—displacement curves IC50 values were determined by non-linear regression analysis using Hill equation curve fitting. The inhibition constants (Ki) were calculated from the Cheng-Prushoff equation Ki=IC50/(1+L/Kd), where L is the concentration of radioligand in the assay, and Kd the affinity of the radioligand for the receptor. Results were expressed as pKi's, means±SD of at least 2 separate experiments; i.e. outliers (outside+/−1 std of mean) and discrepancies were excluded.

Assay [2] deals with T1, Muscarine M4 (GPCR-A-MA-ACH M4). Nature of the assay: Muscarine M4 cell-based functional assay (CHO cells, Ca2+ - Aequorin luminescence). On the procedure:
Compounds were dissolved in DMSO (10 mM) and diluted in assay buffer to test concentration. Prime testing was at 1 μM; for actives in antagonist mode (PI, percent inhibition with respect to reference agonist and blank>30%) as well as actives in agonist mode (PS, percent stimulation with respect to reference agonist and blank>30%) testing was continued at lower concentrations in 10-fold dilutions: 0.1 μM, 0.01 μM, etc.
Cells were incubated with compound and the response indicated was measured.
The results are expressed as a percent of reference agonist values and blanks in the presence of the test compound, percent stimulation for agonist mode; for the antagonist mode (test compound in the presence of reference agonist) as percent inhibition. The EC50 values (concentration causing a half-maximal stimulation of control values), IC50 values (concentration causing a half-maximal inhibition of control values) were determined by non-linear regression analysis of the concentration-response curves using Hill equation curve fitting.

Assay [3] has as its target T2, Muscarine M1 (GPCR-A-MA-ACH M1) (Homo sapiens, UniProt P11229).
T2 construct: expressed in transfected cells; host or cells: CHO cells
T2 sequence (P11229 1-460): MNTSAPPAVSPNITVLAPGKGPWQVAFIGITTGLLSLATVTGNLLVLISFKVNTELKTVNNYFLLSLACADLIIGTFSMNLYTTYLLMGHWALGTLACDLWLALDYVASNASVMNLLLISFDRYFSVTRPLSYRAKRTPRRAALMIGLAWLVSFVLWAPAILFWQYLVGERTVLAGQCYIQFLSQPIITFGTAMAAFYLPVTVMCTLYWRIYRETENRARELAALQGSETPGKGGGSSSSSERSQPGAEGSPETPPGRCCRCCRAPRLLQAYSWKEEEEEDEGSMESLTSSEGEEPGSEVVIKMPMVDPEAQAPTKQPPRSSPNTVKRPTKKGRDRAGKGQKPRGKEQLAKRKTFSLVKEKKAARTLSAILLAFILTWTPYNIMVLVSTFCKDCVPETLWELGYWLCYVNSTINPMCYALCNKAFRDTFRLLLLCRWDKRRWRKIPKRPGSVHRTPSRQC
Put plainly: Muscarine M1 cell-based functional assay (CHO cells, Ca2+ - FLIPR Fluorimetry). The settings on record: read-out: Cell funct. Musc. M1 Agonism pEC50 (converted).

Assay [4] concerns the target T1, Muscarine M4 (GPCR-A-MA-ACH M4). Put plainly: Muscarine M4 receptor binding, 3H-4DAMP. The settings on record: human M4, CHO cells, ligand 0.2 nM, 60 min/22° C., read-out: RB Musc. M4 3H-DAMP pKi (converted). The protocol: as §1, §2, §3
Assay [5] deals with T2, Muscarine M1 (GPCR-A-MA-ACH M1). Nature of the assay: Muscarine M1 receptor binding, 3H-Pirenzepine. As to conditions: human M1, CHO cells, ligand 2 nM, 60 min/22° C., read-out: RB Musc. M1 3H-Pirenzepine pKi (converted). On the procedure:
as §1, §2, §3

Assay [6] deals with T3, Muscarine M3 (GPCR-A-MA-ACH M3) (Cavia porcellus, UniProt H0W1Z3).
T3 construct: from tissue; host or cells: guinea pig ileum
Nature of the assay: Muscarine M3 functional assay, isolated organ (ileum), agonist and antagonist mode. Further details: species or system Guinea Pig.

[7] abbreviates: human M4, CHO cells, receptor binding, ligand 6 nM, 30 min/25° C., read-out: RB Musc. M4 3H-Oxotremorine pKi (converted).
The mark [8] stands for this setting: human M4, CHO cells, agonist mode, reference agonist oxotremorine, read-out: Cell funct. Musc. M4 Agonism pEC50 (converted).
Where [9] appears, read: human M1, CHO cells, agonist mode, reference agonist acetylcholine.

T3 sequence (H0W1Z3 1-590): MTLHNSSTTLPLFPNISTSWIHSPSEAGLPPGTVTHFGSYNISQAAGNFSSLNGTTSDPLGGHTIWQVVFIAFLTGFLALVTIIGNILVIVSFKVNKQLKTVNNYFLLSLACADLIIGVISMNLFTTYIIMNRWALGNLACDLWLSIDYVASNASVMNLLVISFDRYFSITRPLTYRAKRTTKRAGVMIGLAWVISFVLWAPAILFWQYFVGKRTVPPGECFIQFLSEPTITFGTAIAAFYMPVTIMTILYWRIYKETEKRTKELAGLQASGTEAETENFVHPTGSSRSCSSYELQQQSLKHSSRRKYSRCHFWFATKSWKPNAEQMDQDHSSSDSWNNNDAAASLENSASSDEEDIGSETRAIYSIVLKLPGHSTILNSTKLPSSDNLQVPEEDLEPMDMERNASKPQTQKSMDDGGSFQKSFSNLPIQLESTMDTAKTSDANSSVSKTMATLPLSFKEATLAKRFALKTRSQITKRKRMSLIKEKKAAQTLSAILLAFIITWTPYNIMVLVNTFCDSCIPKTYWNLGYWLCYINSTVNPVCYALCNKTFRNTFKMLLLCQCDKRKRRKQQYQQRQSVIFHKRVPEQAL

In the case of `CN1CCC=C(c2n[nH]cc2OCCCc2ccccc2)C1` [Compound 33A, 3-[4-(3-Phenyl-propoxy)-1H-pyrazol-3-yl]-1,2,5,6-tetrahydro-1-methylpyridine], the Ki in assay [1] (setting [7]) was 501 nM; in assay [4] it was 251 nM; in assay [5], 1260 nM. For the same compound, the figures for the EC50 in assay [2] (setting [8]) and in assay [3] (setting [9]) were 794 nM and 126 nM, respectively.
Consider `CCCCOc1c[nH]nc1C1=CCCN(C)C1` [Compound 33C, 3-(4-Butyloxy-1H-pyrazol-3-yl)-1,2,5,6-tetrahydro-1-methylpyridine], for which the Ki in assay [1] (setting [7]) is 1580 nM; in assay [4], 316 nM; in assay [5], 1260 nM. Also, the EC50 in assay [2] (setting [8]) was 1260 nM; in assay [3] (setting [9]), 126 nM.
Turning to `C=CCCOc1c[nH]nc1C1=CCCN(C)C1` [Compound 33D, 3-(4-But-3-enyloxy-1H-pyrazol-3-yl)-1,2,5,6-tetrahydro-1-methylpyridine], the Ki in assay [1] (setting [7]) was 1580 nM; in assay [4], 1000 nM; in assay [5], 2510 nM. The results for the EC50 in assay [2] (setting [8]) and in assay [3] (setting [9]) were 1260 nM and 100 nM, respectively.
Taken in the same sequence, the figures for `CCCCCCCOc1c[nH]nc1C1=CCCN(C)C1` [Compound 33E, 3-(4-Heptyloxy-1H-pyrazol-3-yl)-1,2,5,6-tetrahydro-1-methylpyridine] were 158 nM, 316 nM, 1000 nM, 631 nM and 200 nM.
Taken in the same sequence, the figures for `CCCCC#Cc1c[nH]nc1C1=CCCN(C)C1` [Compound 45A, 3-(4-Hex-1-ynyl-1H-Pyrazol-3-yl)-1,2,5,6-tetrahydro-1-methylpyridine] were 398 nM, 631 nM, 1580 nM, 794 nM and 126 nM.
`CCCCCC#Cc1c[nH]nc1C1=CCCN(C)C1` [Compound 45B, 3-(4-Hept-1-ynyl-1H-pyrazol-3-yl)-1,2,5,6-tetrahydro-1-methylpyridine]: the results for the Ki in assay [1] (setting [7]), in assay [4] and in assay [5] were 501 nM, 1260 nM and 2000 nM, respectively. In addition, the EC50 is 316 nM in assay [2] (setting [8]) and 126 nM in assay [3] (setting [9]).
`CCCCCCCC#Cc1c[nH]nc1C1=CCCN(C)C1` [Compound 45C, 3-(4-Non-1-ynyl-1H-pyrazol-3-yl)-1,2,5,6-tetrahydro-1-methylpyridine]: the Ki in assay [1] (setting [7]) was 501 nM; in assay [4], 794 nM; in assay [5], 794 nM. Further, the EC50 in assay [2] (setting [8]) was 2000 nM; in assay [3] (setting [9]), greater than 1000 nM.
In the case of `CN1CCC=C(c2n[nH]cc2C#CCCCc2ccccc2)C1` [Compound 45D, 3-[4-(5-Phenyl-pent-1-ynyl)-1H-pyrazol-3-yl]-1,2,5,6-tetrahydro-1-methylpyridine], the Ki in assay [1] (setting [7]) is 501 nM; in assay [4] it was 631 nM; in assay [5], 2000 nM. The values for the EC50 in assay [2] (setting [8]) and in assay [3] (setting [9]) were 1260 nM and 794 nM, respectively.
`CN1CCC=C(c2n[nH]cc2C#CCCCC2CCCCC2)C1` [Compound 45E, 3-[4-(5-Cyclohexyl-pent-1-ynyl)-1H-pyrazol-3-yl]-1,2,5,6-tetrahydro-1-methylpyridine]: the Ki in assay [1] (setting [7]), in assay [4] and in assay [5] was 1580 nM each time. The EC50 in assay [2] (setting [8]) was greater than 10000 nM; in assay [3] (setting [9]) it was greater than 1000 nM.
Regarding `CCCCC=Cc1c[nH]nc1C1=CCCN(C)C1` [Compound 47A, 3-(4-Hex-1-enyl-1H-pyrazol-3-yl)-1,2,5,6-tetrahydro-1-methylpyridine], the Ki is 251 nM in assay [1] (setting [7]), 794 nM in assay [4] and 2510 nM in assay [5]. Moreover, the EC50 in assay [2] (setting [8]) is 501 nM; in assay [3] (setting [9]) it was 158 nM.
As to `CCCCCCC=Cc1c[nH]nc1C1=CCCN(C)C1` [Compound 47C, 3-(4-Oct-1-enyl-1H-pyrazol-3-yl)-1,2,5,6-tetrahydro-1-methylpyridine], the Ki in assay [1] (setting [7]) is 251 nM; in assay [4] it was 794 nM; in assay [5], 794 nM. Moreover, the EC50 was 631 nM in assay [2] (setting [8]) and 794 nM in assay [3] (setting [9]).
For `CCSc1c[nH]nc1C1CN2CCC1CC2` (centres unmarked) [Compound 49D, 3-(4-Ethylsulfanyl-1H-pyrazol-3-yl)-1-azabicyclo[2.2.2]octane], the Ki in assay [1] was 126 nM; in assay [4] it was 100 nM; in assay [5], 794 nM. Further, the EC50 is 158 nM in assay [2] and 39.8 nM in assay [3].
Turning to `FC(F)=CCCSc1c[nH]nc1C1CN2CCC1CC2` (centres unmarked) [Compound 49I, 3-[4-(4,4-Difluoro-but-3-enylsulfanyl)-1H-pyrazol-3-yl]-1-azabicyclo[2.2.2]octane], the Ki in assay [1] was 12.6 nM; in assay [4] it was 63.1 nM; in assay [5], 316 nM. Moreover, the EC50 in assay [2] was 20 nM; in assay [3], 3.16 nM.
Taken in the same sequence, the figures for `Ic1c[nH]nc1[C@@H]1CN2CCC[C@H]1C2` [Compound 59, endo-6-(4-iodo-1H-pyrazol-3-yl)-1-azabicyclo[3.2.1]octane] were 200 nM, 100 nM, 1000 nM, greater than 10000 nM and 79.4 nM.
Regarding `CCCCC=Cc1conc1C1=CCCN(C)C1` [Compound 68A, 3-(4-Hex-1-enyl-isoxazol-3-yl)-1,2,5,6-tetrahydro-1-methylpyridine], the Ki is 631 nM in assay [1] (setting [7]), 251 nM in assay [4] and 1580 nM in assay [5]. Moreover, the values for the EC50 in assay [2] (setting [8]) and in assay [3] (setting [9]) were 794 nM and 200 nM, respectively.
Taken in the same sequence, the figures for `CCCCCCC=Cc1conc1C1=CCCN(C)C1` [Compound 68B, 3-(4-Oct-1-enyl-isoxazol-3-yl)-1,2,5,6-tetrahydro-1-methylpyridine] were 794 nM, 1000 nM, 5010 nM, 794 nM and 794 nM.
Taken in the same sequence, the figures for `CCCCCC#Cc1conc1C1=CCCN(C)C1` [Compound 70A, 3-(4-Hept-1-ynyl-isoxazol-3-yl)-1,2,5,6-tetrahydro-1-methylpyridine] were 251 nM, 200 nM, 1000 nM, 631 nM and 251 nM.
In assay [6], `CN1CCN(CC(=O)N2c3ccccc3C(=O)Nc3cccnc32)CC1` [Pirenzepine, reference compound] gave an antagonist equilibrium constant (Kb) of 1.26 nM.
